The values that follow come from paper PMC6934184, “Selective DNA-PKcs inhibition extends the therapeutic index of localized radiotherapy and chemotherapy” (The Journal of Clinical Investigation, 2019).

This experiment addresses T1, EGFR (ErbB1) d746-750 (Homo sapiens, UniProt P00533, DEL746-750).
T1 construct: purchased Thermo Fisher Scientific (Life Technologies) SelectScreen
Put plainly: SelectScreen LanthaScreen. The format is binding. Conditions: 1 µM. In outline: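 SelectScreen broad panel; activity (Z'LYTE, Adapta) plus binding formats. ATP: Km app for CSF1R Z'LYTE; 10 for CAMK1 Adapta. Readout = % per kinase.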
A general note: In TR-FRET formats the signal depends on donor and acceptor labels being close together.

T1 sequence (P00533 with tags, fused parts or gaps DEL746-750 limits assumed): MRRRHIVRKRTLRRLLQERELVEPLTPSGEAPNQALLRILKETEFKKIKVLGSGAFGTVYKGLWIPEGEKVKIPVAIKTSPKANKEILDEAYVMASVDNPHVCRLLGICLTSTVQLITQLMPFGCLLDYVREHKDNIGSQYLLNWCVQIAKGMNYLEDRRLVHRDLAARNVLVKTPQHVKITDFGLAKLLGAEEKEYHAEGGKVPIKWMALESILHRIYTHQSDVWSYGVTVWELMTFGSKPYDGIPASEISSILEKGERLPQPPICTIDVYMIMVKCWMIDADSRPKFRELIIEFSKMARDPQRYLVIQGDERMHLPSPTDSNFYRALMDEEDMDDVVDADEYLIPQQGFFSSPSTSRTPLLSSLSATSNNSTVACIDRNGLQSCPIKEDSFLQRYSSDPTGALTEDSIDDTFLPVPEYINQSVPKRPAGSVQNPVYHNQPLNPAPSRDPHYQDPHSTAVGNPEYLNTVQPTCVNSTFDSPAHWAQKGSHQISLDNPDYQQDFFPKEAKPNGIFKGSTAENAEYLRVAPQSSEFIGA

Consider `CN(C(=O)CN1CCOCC1)c1ccc2sc3c(-c4cccc5c(=O)cc(N6CC7CCC(C6)O7)oc45)cccc3c2c1` [NU5455], for which the “% displacement” value turned out to be 5.8%.
